Test results reported in US8222244B2, “Staurosporine derivatives as inhibitors of FLT3 receptor tyrosine kinase activity” (Novartis AG, priority 2001, dated 2012).

These molecules were tested against T1, human Flt-3 (Homo sapiens, UniProt P36888) (assay: Tyrosine protein kinase assay with purified GST-Flt-3 (33P incorporation)). Settings: at a 1.0 micromolar concentration.
T1 construct: expresses the amino acid region amino acids 563-993 of the intra-cytoplasmic kinase domains of human Flt-3; made in house; host or cells: Sf9 insect cells (baculovirus, pFbacG01 donor vector)
T1 sequence (P36888 563-993): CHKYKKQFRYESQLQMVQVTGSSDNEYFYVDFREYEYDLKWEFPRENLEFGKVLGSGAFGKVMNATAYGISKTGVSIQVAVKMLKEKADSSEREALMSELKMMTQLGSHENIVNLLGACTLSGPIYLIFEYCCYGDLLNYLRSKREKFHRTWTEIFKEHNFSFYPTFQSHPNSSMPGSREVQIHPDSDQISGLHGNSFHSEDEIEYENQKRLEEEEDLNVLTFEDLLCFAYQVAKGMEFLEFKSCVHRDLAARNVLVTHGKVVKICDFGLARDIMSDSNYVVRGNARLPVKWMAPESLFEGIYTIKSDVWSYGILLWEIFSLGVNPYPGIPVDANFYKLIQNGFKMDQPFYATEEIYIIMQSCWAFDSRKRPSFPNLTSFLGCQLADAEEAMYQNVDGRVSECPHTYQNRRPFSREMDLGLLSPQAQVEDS
Assay type: biochemical
Procedure: ATP into appropriate substrates.
The coding sequences for the cytoplasmic domain of Flt-3 was amplified by PCR from human c-DNA libraries (Clontech). The amplified DNA fragments and the pFbacG01 vector were made compatible for ligation by digestion with BamH1 and Hind III. […] The production of the viruses, the expression of proteins in Sf9 cells and the purification of the GST-fused proteins were performed as following:
(Generation of Bac- to Bac GST-fusion vectors); pFbacG01, pFbacGST2T and pFbacGSTx3 Bac-to-Bac™ donor vectors were generated from pAcG1, pAcG2T and pAcG3X respectively, which facilitate the expression of GST-fusion proteins with the possibility of cleavage with thrombin (pFbacGT2) or factor Xa (pFbacGSTx3) while pFbacG01 expresses no proteolytic cleavage site. These were generated in house by isolation of the DNA fragment containing the gene for GST with the C-terminal protease and restriction sites by restriction enzyme digestion of the relevant PharMingen baculovirus donor vector with EcoRV and EcoRI. This EcoRV/EcoRI fragment was ligated into the pFastBac1 vector which had been restriction digested with BamHI, blunt-ended by Klenow reaction and subsequently digested with EcoRI to generate a blunt-ended/EcoRI vector. (Production of virus); Transfer vectors containing the kinase domains were transfected into the DH10Bac cell line (GIBCO) and plated on selective agar plates. Colonies without insertion of the fusion sequence into the viral genome (carried by the bacteria) are blue. Single white colonies were picked and viral DNA (bacmid) isolated from the bacteria by standard plasmid purification procedures. Sf9 cells or Sf21 cells were then transfected in 25 cm^2 flasks with the viral DNA using Cellfectin reagent. (Determination of small scale protein expression in Sf9 cells); Virus containing media was collected from the transfected cell culture and used for infection to increase its titer. Virus containing media obtained after two rounds of infection was used for large-scale protein expression. For large-scale protein expression 100 cm^2 round tissue culture plates were seeded with 5×10^7 cells/plate and infected with 1 mL of virus-containing media (approx. 5 MOIs). After 3 days the cells were scraped off the plate and centrifuged at 500 rpm for 5 min. Cell pellets from 10-20, 100 cm^2 plates, were resuspended in 50 mL of ice-cold lysis buffer (25 mMTris-HCl, pH7.5, 2 mMEDTA, 1% NP-40, 1 mM DTT, 1 mMP MSF). The cells were stirred on ice for 15 min and then centrifuged at 5000 rpms for 20 min.
ATP 0.1 μCi). […] ATP into appropriate substrates. […] Subsequently, 40 μL of the reaction mixture were transferred onto Immobilon-PVDF membrane (Millipore, Bedford, Mass., USA) previously soaked for 5 min with methanol, rinsed with water, then soaked for 5 min with 0.5% H3PO4 and mounted on vacuum manifold with disconnected vacuum source. After spotting all samples, vacuum was connected and each well rinsed with 200 μL 0.5% H3PO4. Membranes were removed and washed 4× on a shaker with 1.0% H3PO4, once with ethanol. Membranes were counted after drying at ambient temperature, mounting in Packard TopCount 96-well frame, and addition of 10 μL/well of Microscint™ (Packard). […] One unit of protein kinase activity is defined as 1 nmole of ^33P ATP transferred from [γ^33P] ATP to the substrate protein per minute per mg of protein at 37° C.

| Molecule | Flt3 Inhibition (percent inhibition of Flt3 kinase activity) |
| --- | --- |
| CO[C@@H]1[C@H](N(C)C(=O)OC(C)(C)C)C[C@H]2O[C@]1(C)n1c3ccccc3c3c4c(c5c6ccccc6n2c5c31)C(=O)NC4 [120685-17-8, [9S-(9a,10b,11b,13a)]-(2,3,10,11,12,13-Hexahydro-10-methoxy-9-methyl-1-oxo-9,13-epoxy-1H,9H-diindolo[1,2,3-gh:3′,2′,1′-lm]pyrrolo[3,4-j][1,7]benzodiazonin-11-yl)methyl-carbamic acid, 1,1-dimethylethyl ester] | 33% |
| (9a,10b,11b,13a)-11-[(N-Acetyl-a-normuramoyl)methylamino]-2,3,10,11,12,13-hexahydro-10-methoxy-9-methyl-9,13-epoxy-1H,9H-diindolo[1,2,3-gh:3′,2′,1′-lm]pyrrolo[3,4-j][1,7]benzodiazonin-1-one [149622-55-9] | 85% |
| CO[C@@H]1[C@H](N(C)C(=O)c2ccccc2)C[C@H]2O[C@]1(C)n1c3ccccc3c3c4c(c5c6ccccc6n2c5c31)C(=O)NC4O (stereo partly shown) [179237-49-1, N-(2,3,10,11,12,13-Hexahydro-3-hydroxy-10-methoxy-9-methyl-1-oxo-9,13-epoxy-1H,9H-diindolo[1,2,3-gh:3′,2′,1′-lm]pyrrolo[3,4-j][1,7]benzodiazonin-11-yl)-N-methyl-benzamide] | 41% |
| COC1C(N(C)C(=O)c2cccc([N+](=O)[O-])c2)CC2OC1(C)n1c3ccccc3c3c4c(c5c6ccccc6n2c5c31)C(=O)NC4 (stereo not shown) [120685-15-6, (9a,10b,11b,13a)-N-(2,3,10,11,12,13-Hexahydro-10-methoxy-9-methyl-1-oxo-9,13-epoxy-1H,9H-diindolo[1,2,3-gh:3′,2′,1′-lm]pyrrolo[3,4-j][1,7]benzodiazonin-11-yl)-N-methyl-3-nitro-benzamide] | 74% |
| [9S-(9a,10b,11b,13a)]-[3-[(2,3,10,11,12,13-Hexahydro-10-methoxy-9-methyl-1-oxo-9,13-epoxy-1H,9H-diindolo[1,2,3-gh:3′,2′,1′-lm]pyrrolo[3,4-j][1,7]benzodiazonin-11-yl)methylamino]-3-oxopropyl]-carbamic acid, 1,1-dimethylethyl ester [124078-44-0] | 87% |
| CO[C@@H]1[C@H](N(C)C(=O)C(C)(C)OC2CCOCC2)C[C@H]2O[C@]1(C)n1c3ccccc3c3c4c(c5c6ccccc6n2c5c31)C(=O)NC4 [160251-55-8, [9S-(9a,10b,11b,13a)]-N-(2,3,10,11,12,13-Hexahydro-10-methoxy-9-methyl-1-oxo-9,13-epoxy-1H,9H-diindolo[1,2,3-gh:3′,2′,1′-lm]pyrrolo[3,4-j][1,7]benzodiazonin-11-yl)-N,2-dimethyl-2-[(tetrahydro-2H-pyran-4-yl)oxy]-propanamide] | 85% |
| COC1C(N(C)C(=O)c2cc([N+](=O)[O-])cc([N+](=O)[O-])c2)CC2OC1(C)n1c3ccccc3c3c4c(c5c6ccccc6n2c5c31)C(=O)NC4 (stereo not drawn) [120685-18-9, [9S-(9a,10b,11b,13a)]-N-(2,3,10,11,12,13-Hexahydro-10-methoxy-9-methyl-1-oxo-9,13-epoxy-1H,9H-diindolo[1,2,3-gh:3′,2′,1′-lm]pyrrolo[3,4-j][1,7]benzodiazonin-11-yl)-N-methyl-3,5-dinitro-benzamide] | 63% |
| [9a,10b,11b(S*),13a]-phenylmethyl 2-(acetylamino)-2-deoxy-3-O-[1-[[(2,3,10,11,12,13-hexahydro-10-methoxy-9-methyl-1-oxo-9,13-epoxy-1H,9H-diindolo[1,2,3-gh:3′,2′,1′-lm]pyrrolo[3,4-j][1,7]benzodiazonin-11-yl)methylamino]carbonyl]propyl]-a-D-Glucopyranoside [149622-45-7] | 43% |
| CNC1CC2OC(C)(C1O)n1c3ccccc3c3c4c(c5c6ccccc6n2c5c31)C(=O)NC4 [239785-03-6, (9R,10S,11S,13S)-2,3,10,11,12,13-Hexahydro-10-hydroxy-9-methyl-11-(methylamino)-,9,13-epoxy-1H,9H-diindolo[1,2,3-gh:3′,2′,1′-lm]pyrrolo[3,4-j][1,7]benzodiazonin-1-one] | 100% |
| (9a,10b,11b,13a)-11-[[N-Acetyl-4,6-di-O-acetyl-1-O-(phenylmethyl)-a-muramoyl]methylamino]-2,3,10,11,12,13-hexahydro-10-methoxy-9-methyl-9,13-epoxy-1H,9H-diindolo[1,2,3-gh:3′,2′,1′-lm]pyrrolo[3,4-j][1,7]benzodiazonin-1-one [149622-61-7] | 70% |
| COC1C(N(C)C(=O)c2cccc(F)c2)CC2OC1(C)n1c3ccccc3c3c4c(c5c6ccccc6n2c5c31)C(=O)NC4 (stereo not shown) [120685-16-7, (9a,10b,11b,13a)-3-Fluoro-N-(2,3,10,11,12,13-hexahydro-10-methoxy-9-methyl-1-oxo-9,13-epoxy-1H,9H-diindolo[1,2,3-gh:3′,2′,1′-lm]pyrrolo[3,4-j][1,7]benzodiazonin-11-yl)-N-methyl-benzamide] | 60% |
| CNC(=S)N(C)C1CC2OC(C)(C1OC)n1c3ccccc3c3c4c(c5c6ccccc6n2c5c31)C(=O)NC4 (stereo not shown) [120685-13-4, (9a,10b,11b,13a)-N-(2,3,10,11,12,13-Hexahydro-10-methoxy-9-methyl-1-oxo-9,13-epoxy-1H,9H-diindolo[1,2,3-gh:3′,2′,1′-lm]pyrrolo[3,4-j][1,7]benzodiazonin-11-yl)-N,N′-dimethyl-thiourea] | 91% |
| [9S-(9a,10b,11b,13a)]-(2,3,10,11,12,13-Hexahydro-10-methoxy-9-methyl-1-oxo-9,13-epoxy-1H,9H-diindolo[1,2,3-gh:3′,2′,1′-lm]pyrrolo[3,4-j][1,7]benzodiazonin-11-yl)methyl-carbamic acid, 2-methylpropyl ester [154590-03-1] | 49% |
| (9a,10b,11b,13a)-11-[[N-Acetyl-6-O-(methylsulfonyl)-a-muramoyl]methylamino]-2,3,10,11,12,13-hexahydro-10-methoxy-9-methyl-9,13-epoxy-1H,9H-diindolo[1,2,3-gh:3′,2′,1′-lm]pyrrolo[3,4-j][1,7]benzodiazonin-1-one [149622-54-8] | 94% |
| COC1C([N+](C)(C)C)CC2OC1(C)n1c3ccccc3c3c4c(c5c6ccccc6n2c5c31)C(=O)NC4.[I-] (stereo not drawn) [120685-26-9, [9S-(9a,10b,11b,13a)]-2,3,10,11,12,13-Hexahydro-10-methoxy-N,N,N,9-tetramethyl-1-oxo-9,13-epoxy-1H,9H-diindolo[1,2,3-gh:3′,2′,1′-lm]pyrrolo[3,4-j][1,7]benzodiazonin-11-aminium iodide] | 97% |
| [9a,10b,11b(S*),13a]-2-(Acetylamino)-2-deoxy-3-O-[1-[[(2,3,10,11,12,13-hexahydro-10-methoxy-9-methyl-1-oxo-9,13-epoxy-1H,9H-diindolo[1,2,3-gh:3′,2′,1′-lm]pyrrolo[3,4-j][1,7]benzodiazonin-11-yl)methylamino]carbonyl]propyl]-a-D-Glucopyranose [149622-60-6] | 76% |
